The target of the experiment is CDK2/Cyclin E1 (Homo sapiens (Human), UniProt P24941). The experiment can be described thus: biochemical. As to conditions: CDK2_Ki (nM), phosphorylated CDK2/Cyclin E1, 150 μM ATP, Morrison tight-binding fit.
Method: The assay was initiated with the addition of ATP, following a fifteen minutes pre-incubation of enzyme and inhibitor at room temperature in the reaction mixture. The reaction was stopped after 45 minutes at room temperature by the addition of 50 μL of 80 mM EDTA, pH 7.5.
For orientation: Ki means a measure of affinity in units of concentration, obtained from inhibition or displacement. Read a high Ki as a looser hold on the target. `Cc1cc2cnc(NC3CCN(S(C)(=O)=O)CC3)nc2n([C@H]2CCC[C@H](O)C2)c1=O` (single isomer, unassigned) [Example 33, (−)-8-[(1R*,3R*)-3-hydroxycyclohexyl]-6-methyl-2-{[1-(methylsulfonyl)piperidin-4-yl]amino}pyrido[2,3-d]pyrimidin-7(8H)-one] came in with a Ki of 42.6 nM.
The result for `CS(=O)(=O)N1CCC(Nc2ncc3ccc(=O)n([C@@H]4CC[C@@H](O)C4)c3n2)CC1` (single isomer, unassigned) [Example 54, (−)-8-[(1R*,3R*)-3-hydroxycyclopentyl]-2-{[1-(methylsulfonyl)piperidin-4-yl]amino}pyrido[2,3-d]pyrimidin-7(8H)-one] reads 1.44 nM; that for `CNS(=O)(=O)N1CCC(Nc2ncc3ccc(=O)n([C@H]4CCC[C@]4(C)O)c3n2)CC1` (single isomer, unassigned) [Example 57, (+)-4-({8-[(1R*,2R*)-2-hydroxy-2-methylcyclopentyl]-7-oxo-7,8-dihydropyrido[2,3-d]pyrimidin-2-yl}amino)-N-methylpiperidine-1-sulfonamide], 5.21 nM; that for `C[C@@]1(O)CCC[C@H]1n1c(=O)ccc2cnc(NC3CCN(S(=O)(=O)NC[C@@H]4CCCO4)CC3)nc21` (single isomer, unassigned) [Example 62, (−)-4-({8-[(1R*,2R*)-2-hydroxy-2-methylcyclopentyl]-7-oxo-7,8-dihydropyrido[2,3-d]pyrimidin-2-yl}amino)-N-[(2S)-tetrahydrofuran-2-ylmethyl]piperidine-1-sulfonamide], 0.35 nM.
With `C[C@]1(O)CCC[C@@H]1n1c(=O)ccc2cnc(NC3CCN(S(=O)(=O)NC[C@@H]4CCCO4)CC3)nc21` (single isomer, unassigned) [Example 63, (+)-4-({8-[(1R*,2R*)-2-hydroxy-2-methylcyclopentyl]-7-oxo-7,8-dihydropyrido[2,3-d]pyrimidin-2-yl}amino)-N-[(2S)-tetrahydrofuran-2-ylmethyl]piperidine-1-sulfonamide] the figure was 4.51 nM.
As to `C[C@]1(O)CCC[C@@H]1n1c(=O)ccc2cnc(NC3CCN(S(=O)(=O)NC[C@H]4CCCO4)CC3)nc21` (single isomer, unassigned) [Example 65, (+)-4-({8-[(1R*,2R*)-2-hydroxy-2-methylcyclopentyl]-7-oxo-7,8-dihydropyrido[2,3-d]pyrimidin-2-yl}amino)-N-[(2R)-tetrahydrofuran-2-ylmethyl]piperidine-1-sulfonamide], the Ki was found to be 4.85 nM.
The result for `C[C@]1(O)CCC[C@@H]1n1c(=O)ccc2cnc(NC3CCN(S(=O)(=O)C(F)(F)F)CC3)nc21` (single isomer, unassigned) [Example 89, (+)-8-[(1R*,2R*)-2-hydroxy-2-methylcyclopentyl]-2-({1-[(trifluoromethyl)sulfonyl]piperidin-4-yl}amino)pyrido[2,3-d]pyrimidin-7(8H)-one] reads 17.6 nM.
As for `CNS(=O)(=O)N1CCC(Nc2ncc3cc(C)c(=O)n([C@H]4CCC[C@]4(C)O)c3n2)CC1` (single isomer, unassigned) [Example 95, (+)-4-({8-[(1R*,2R*)-2-hydroxy-2-methylcyclopentyl]-6-methyl-7-oxo-7,8-dihydropyrido[2,3-d]pyrimidin-2-yl}amino)-N-methylpiperidine-1-sulfonamide], the affinity corresponds to a Ki of 1.39 nM.
With `Cc1cc2cnc(NC3CCN(S(=O)(=O)NC[C@@H]4CCCO4)CC3)nc2n([C@@H]2CCC[C@@]2(C)O)c1=O` (single isomer, unassigned) [Example 100, (−)-4-({8-[(1R*,2R*)-2-hydroxy-2-methylcyclopentyl]-6-methyl-7-oxo-7,8-dihydropyrido[2,3-d]pyrimidin-2-yl}amino)-N-[(2S)-tetrahydrofuran-2-ylmethyl]piperidine-1-sulfonamide] the figure was 0.27 nM; with `Cc1cc2cnc(NC3CCN(S(=O)(=O)NC[C@@H]4CCCO4)CC3)nc2n([C@H]2CCC[C@]2(C)O)c1=O` (single isomer, unassigned) [Example 101, (+)-4-({8-[(1R*,2R*)-2-hydroxy-2-methylcyclopentyl]-6-methyl-7-oxo-7,8-dihydropyrido[2,3-d]pyrimidin-2-yl}amino)-N-[(2S)-tetrahydrofuran-2-ylmethyl]piperidine-1-sulfonamide], 3.59 nM.
The result for `Cc1cc2cnc(NC3CCN(S(=O)(=O)NC[C@H]4CCCO4)CC3)nc2n([C@@H]2CCC[C@@]2(C)O)c1=O` (single isomer, unassigned) [Example 102, (−)-4-({8-[(1R*,2R*)-2-hydroxy-2-methylcyclopentyl]-6-methyl-7-oxo-7,8-dihydropyrido[2,3-d]pyrimidin-2-yl}amino)-N-[(2H)-tetrahydrofuran-2-ylmethyl]piperidine-1-sulfonamide] reads 0.24 nM.
`Cc1cc2cnc(NC3CCN(S(=O)(=O)NC[C@H]4CCCO4)CC3)nc2n([C@H]2CCC[C@]2(C)O)c1=O` (single isomer, unassigned) [Example 103, (+)-4-({8-[(1R*,2R*)-2-hydroxy-2-methylcyclopentyl]-6-methyl-7-oxo-7,8-dihydropyrido[2,3-d]pyrimidin-2-yl}amino)-N-[(2R)-tetrahydrofuran-2-ylmethyl]piperidine-1-sulfonamide] showed an inhibition constant (Ki) of 3.46 nM.
With `CS(=O)(=O)N1CC[C@@H](Nc2ncc3cc(CCO)c(=O)n(C4CCCC4)c3n2)[C@H](F)C1` (single isomer, unassigned) [Example 157, (+)-8-cyclopentyl-2-{[(3S*,4S*)-3-fluoro-1-(methylsulfonyl)piperidin-4-yl]amino}-6-(2-hydroxyethyl)pyrido[2,3-d]pyrimidin-7(8H)-one] the figure was 36 nM; with `COCCc1cc2cnc(N[C@@H]3CCN(S(C)(=O)=O)C[C@H]3F)nc2n(C2CCCC2)c1=O` (single isomer, unassigned) [Example 159, (+)-8-cyclopentyl-2-{[(3S*,4S*)-3-fluoro-1-(methylsulfonyl)piperidin-4-yl]amino}-6-(2-methoxyethyl)pyrido[2,3-d]pyrimidin-7(8H)-one], 95.2 nM.
With `CS(=O)(=O)N1CC[C@@H](Nc2ncc3cc(CC(N)=O)c(=O)n(C4CCCC4)c3n2)[C@H](F)C1` (single isomer, unassigned) [Example 161, (+)-2-(8-cyclopentyl-2-{[(3S*,4S*)-3-fluoro-1-(methylsulfonyl)piperidin-4-yl]amino}-7-oxo-7,8-dihydropyrido[2,3-d]pyrimidin-6-yl)acetamide] the figure was 135 nM; with `CC(=O)c1c(C)c2cnc(NC3CCN(S(C)(=O)=O)CC3)nc2n([C@H]2CCC[C@]2(C)O)c1=O` (single isomer, unassigned) [Example 178, (+)-6-acetyl-8-[(1R*,2R*)-2-hydroxy-2-methylcyclopentyl]-5-methyl-2-{[1-(methylsulfonyl)piperidin-4-yl]amino}pyrido[2,3-d]pyrimidin-7(8H)-one], 9.04 nM.
With `C[C@@H]1[C@H](O)CC[C@H]1n1c(=O)c(CC(F)F)cc2cnc(NC3CCN(S(C)(=O)=O)CC3)nc21` (single isomer, unassigned) [Example 206, (−)-6-(2,2-difluoroethyl)-8-[(1R*,2S*,3R*)-3-hydroxy-2-methylcyclopentyl]-2-{[1-(methylsulfonyl)piperidin-4-yl]amino}pyrido[2,3-d]pyrimidin-7(8H)-one] the figure was 0.57 nM; with `C[C@@H]1[C@H](O)CC[C@@H]1n1c(=O)ccc2cnc(NC3CCN(S(C)(=O)=O)CC3)nc21` (single isomer, unassigned) [Example 207, (+)-8-[(1R*,2R*,3S*)-3-hydroxy-2-methylcyclopentyl]-2-{[1-(methylsulfonyl)piperidin-4-yl]amino}pyrido[2,3-d]pyrimidin-7(8H)-one], 5.05 nM.
`C[C@@H]1[C@H](n2c(=O)ccc3cnc(NC4CCN(S(C)(=O)=O)CC4)nc32)CC[C@@H]1O` (single isomer, unassigned) [Example 208, (−)-8-[(1R*,2R*,3S*)-3-hydroxy-2-methylcyclopentyl]-2-{[1-(methylsulfonyl)piperidin-4-yl]amino}pyrido[2,3-d]pyrimidin-7(8H)-one] displayed a Ki of 12.4 nM.
In turn, `C[C@H]1[C@@H](O)CCC[C@@H]1n1c(=O)ccc2cnc(NC3CCN(S(C)(=O)=O)CC3)nc21` (single isomer, unassigned) [Example 222, (+)-8-[(1S*,2R*,3S*)-3-hydroxy-2-methylcyclohexyl]-2-{[1-(methylsulfonyl)piperidin-4-yl]amino}pyrido[2,3-d]pyrimidin-7(8H)-one] showed an inhibitory constant (Ki) of 2.06 nM.
In turn, `C[C@@]1(O)CCCC1n1c(=O)ccc2cnc(NC3CCN(S(=O)(=O)NC[C@H]4CCCO4)CC3)nc21` (single isomer, unassigned; (-)) [Example 64, (−)-4-({8-[(1R*,2R*)-2-hydroxy-2-methylcyclopentyl]-7-oxo-7,8-dihydropyrido[2,3-d]pyrimidin-2-yl}amino)-N-[(2R)-tetrahydrofuran-2-ylmethyl]piperidine-1-sulfonamide] registered an inhibition constant Ki of 0.35 nM.
The result for `CC1(C)CC(Nc2ncc3cc(CCO)c(=O)n(C4CCCC4)c3n2)CCN1S(C)(=O)=O` (single isomer, unassigned; (-)) [Example 163, (−)-8-cyclopentyl-2-{[2,2-dimethyl-1-(methylsulfonyl)piperidin-4-yl]amino}-6-(2-hydroxyethyl)pyrido[2,3-d]pyrimidin-7(8H)-one] reads 63.2 nM; that for `C[C@@]1(O)CCC[C@H]1n1c(=O)ccc2cnc(NC3CCN(S(=O)(=O)C4CCS(=O)(=O)C4)CC3)nc21` (single isomer, unassigned; isomer b) [Example 71], 0.25 nM.
With `CN(C)S(=O)(=O)N1CCC(Nc2ncc3ccc(=O)n(C4CCCC4)c3n2)CC1` [Example 12, 4-[(8-cyclopentyl-7-oxo-7,8-dihydropyrido[2,3-d]pyrimidin-2-yl)amino]-N,N-dimethylpiperidine-1-sulfonamide] the figure was 1.12 nM; with `O=c1ccc2cnc(NC3CCN(S(=O)(=O)C(F)F)CC3)nc2n1C1CCCC1` [Example 14, 8-cyclopentyl-2-({1-[(difluoromethyl)sulfonyl]piperidin-4-yl}amino)pyrido[2,3-d]pyrimidin-7(8H)-one], 2.5 nM.

The record behind these values is US10233188B2, “CDK2/4/6 inhibitors” (priority 2016, dated 2019).
